Test results reported in patent US12258327B2, “5-membered heteroaryl-containing aminopyridine compounds as EGFR inhibitors” (YUHAN CORPORATION, priority 2021, dated 2025).
Read-outs that look alike come from different tables or passages of the source.

Legend:
EGFR del19/T790M/C797S = EGFR del19/T790M/C797S (Homo sapiens, UniProt P00533, C797S/DEL746-750/T790M); experiment: Biochemical EGFR kinase assay (Lance Ultra TR-FRET), triple mutant del19/T790M/C797S
In short: (§1)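 In this biochemical assay, phosphorylation after a one-hour room-temperature reaction was detected with europium-labelled anti-phosphopeptide antibody at 2 nM final concentration.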

EGFR L858R/T790M/C797S = EGFR L858R/T790M/C797S (Homo sapiens, UniProt P00533, C797S/L858R/T790M); experiment: Biochemical EGFR kinase assay (Lance Ultra TR-FRET), triple mutant L858R/T790M/C797S
In short: as §1

EGFR del19/C797S = EGFR del19/C797S (Homo sapiens, UniProt P00533, C797S/DEL746-750); experiment: Biochemical EGFR kinase assay (Lance Ultra TR-FRET), double mutant del19/C797S
In short: as §1

EGFR wildtype (WT) = EGFR wildtype (WT) (Homo sapiens, UniProt P00533); experiment: Biochemical EGFR kinase assay (Lance Ultra TR-FRET), wildtype
In short: as §1

EGFR L858R/C797S = EGFR L858R/C797S (Homo sapiens, UniProt P00533, C797S/L858R); experiment: Biochemical EGFR kinase assay (Lance Ultra TR-FRET), double mutant L858R/C797S
In short: as §1

[1] = IC50 del19/T790M/C797S (nM) 100 μM ATP, 100 μM ATP
[2] = Km ATP, read-out: IC50 del19/T790M/C797S (nM) Km ATP
[3] = IC50 L858R/T790M/C797S (nM) 100 μM ATP, 100 μM ATP
[4] = Km ATP, read-out: IC50 L858R/T790M/C797S (nM) Km ATP
[5] = IC50 del19/C797S (nM) 100 μM ATP, 100 μM ATP
[6] = Km ATP, read-out: IC50 del19/C797S (nM) Km ATP
[7] = IC50 WT (nM) 100 μM ATP, 100 μM ATP
[8] = Km ATP, read-out: IC50 WT (nM) Km ATP
[9] = IC50 L858R/C797S (nM) 100 μM ATP, 100 μM ATP
[10] = Km ATP, read-out: IC50 L858R/C797S (nM) Km ATP

Chain of EGFR del19/T790M/C797S (P00533 with tags, fused parts or gaps DEL746-750/T790M/C797S): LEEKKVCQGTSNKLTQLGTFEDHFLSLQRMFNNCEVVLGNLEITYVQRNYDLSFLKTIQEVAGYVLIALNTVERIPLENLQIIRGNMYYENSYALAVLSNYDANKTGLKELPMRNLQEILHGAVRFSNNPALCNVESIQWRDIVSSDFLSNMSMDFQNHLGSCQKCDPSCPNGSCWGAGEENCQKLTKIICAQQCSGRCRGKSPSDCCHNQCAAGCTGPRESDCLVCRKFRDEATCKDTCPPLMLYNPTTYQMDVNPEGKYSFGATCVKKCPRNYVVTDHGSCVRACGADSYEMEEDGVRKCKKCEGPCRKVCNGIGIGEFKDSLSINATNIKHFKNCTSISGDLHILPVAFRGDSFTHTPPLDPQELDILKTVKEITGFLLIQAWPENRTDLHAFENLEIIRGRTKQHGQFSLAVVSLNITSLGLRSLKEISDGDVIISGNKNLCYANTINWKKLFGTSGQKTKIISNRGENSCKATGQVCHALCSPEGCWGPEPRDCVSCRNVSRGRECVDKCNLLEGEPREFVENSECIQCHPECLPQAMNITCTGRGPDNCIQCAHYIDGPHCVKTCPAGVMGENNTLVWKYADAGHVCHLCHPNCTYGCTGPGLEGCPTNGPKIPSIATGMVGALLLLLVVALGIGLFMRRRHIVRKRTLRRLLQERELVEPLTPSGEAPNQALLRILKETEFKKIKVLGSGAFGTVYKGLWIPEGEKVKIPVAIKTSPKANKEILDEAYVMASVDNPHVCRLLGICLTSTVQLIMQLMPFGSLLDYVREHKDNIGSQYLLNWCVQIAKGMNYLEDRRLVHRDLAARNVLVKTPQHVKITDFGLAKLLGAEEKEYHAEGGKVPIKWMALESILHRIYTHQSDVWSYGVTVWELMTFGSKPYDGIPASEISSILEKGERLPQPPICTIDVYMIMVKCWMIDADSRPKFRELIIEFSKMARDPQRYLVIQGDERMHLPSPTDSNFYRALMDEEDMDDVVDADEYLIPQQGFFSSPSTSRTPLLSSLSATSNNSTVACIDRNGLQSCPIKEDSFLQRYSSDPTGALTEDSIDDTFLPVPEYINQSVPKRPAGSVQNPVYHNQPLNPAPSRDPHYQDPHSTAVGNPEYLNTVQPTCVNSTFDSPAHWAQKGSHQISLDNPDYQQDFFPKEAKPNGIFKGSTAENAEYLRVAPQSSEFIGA
Chain of EGFR wildtype (WT) (P00533 25-1210): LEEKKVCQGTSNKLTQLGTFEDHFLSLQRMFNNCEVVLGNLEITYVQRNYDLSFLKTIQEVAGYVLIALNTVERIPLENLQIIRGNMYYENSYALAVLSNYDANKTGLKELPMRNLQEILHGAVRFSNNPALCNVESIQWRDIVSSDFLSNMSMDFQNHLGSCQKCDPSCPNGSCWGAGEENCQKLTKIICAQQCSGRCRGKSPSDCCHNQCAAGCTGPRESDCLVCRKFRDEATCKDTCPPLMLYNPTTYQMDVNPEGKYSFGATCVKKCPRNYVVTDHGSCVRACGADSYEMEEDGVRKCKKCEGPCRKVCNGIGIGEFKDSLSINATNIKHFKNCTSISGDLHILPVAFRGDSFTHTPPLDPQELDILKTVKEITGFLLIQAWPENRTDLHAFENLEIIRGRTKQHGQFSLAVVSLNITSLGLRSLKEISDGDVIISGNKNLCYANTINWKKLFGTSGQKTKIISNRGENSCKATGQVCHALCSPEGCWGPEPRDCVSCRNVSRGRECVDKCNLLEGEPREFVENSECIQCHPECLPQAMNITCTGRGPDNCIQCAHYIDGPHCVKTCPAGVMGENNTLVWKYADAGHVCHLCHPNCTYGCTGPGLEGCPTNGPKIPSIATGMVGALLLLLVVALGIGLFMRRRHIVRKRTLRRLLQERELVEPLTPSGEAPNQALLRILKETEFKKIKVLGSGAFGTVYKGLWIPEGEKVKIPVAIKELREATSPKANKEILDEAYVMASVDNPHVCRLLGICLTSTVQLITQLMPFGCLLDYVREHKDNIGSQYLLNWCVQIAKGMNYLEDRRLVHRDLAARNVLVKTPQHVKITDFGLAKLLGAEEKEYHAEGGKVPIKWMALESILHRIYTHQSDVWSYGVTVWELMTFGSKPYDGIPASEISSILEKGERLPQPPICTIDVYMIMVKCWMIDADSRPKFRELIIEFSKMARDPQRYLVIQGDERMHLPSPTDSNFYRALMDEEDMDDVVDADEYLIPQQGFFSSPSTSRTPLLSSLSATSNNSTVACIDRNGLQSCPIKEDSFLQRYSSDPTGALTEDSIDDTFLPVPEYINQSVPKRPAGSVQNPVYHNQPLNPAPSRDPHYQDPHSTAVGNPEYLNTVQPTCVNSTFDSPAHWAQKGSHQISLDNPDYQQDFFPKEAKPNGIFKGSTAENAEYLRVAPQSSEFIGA
Chain of EGFR L858R/T790M/C797S (P00533 25-1210 T790M/C797S/L858R): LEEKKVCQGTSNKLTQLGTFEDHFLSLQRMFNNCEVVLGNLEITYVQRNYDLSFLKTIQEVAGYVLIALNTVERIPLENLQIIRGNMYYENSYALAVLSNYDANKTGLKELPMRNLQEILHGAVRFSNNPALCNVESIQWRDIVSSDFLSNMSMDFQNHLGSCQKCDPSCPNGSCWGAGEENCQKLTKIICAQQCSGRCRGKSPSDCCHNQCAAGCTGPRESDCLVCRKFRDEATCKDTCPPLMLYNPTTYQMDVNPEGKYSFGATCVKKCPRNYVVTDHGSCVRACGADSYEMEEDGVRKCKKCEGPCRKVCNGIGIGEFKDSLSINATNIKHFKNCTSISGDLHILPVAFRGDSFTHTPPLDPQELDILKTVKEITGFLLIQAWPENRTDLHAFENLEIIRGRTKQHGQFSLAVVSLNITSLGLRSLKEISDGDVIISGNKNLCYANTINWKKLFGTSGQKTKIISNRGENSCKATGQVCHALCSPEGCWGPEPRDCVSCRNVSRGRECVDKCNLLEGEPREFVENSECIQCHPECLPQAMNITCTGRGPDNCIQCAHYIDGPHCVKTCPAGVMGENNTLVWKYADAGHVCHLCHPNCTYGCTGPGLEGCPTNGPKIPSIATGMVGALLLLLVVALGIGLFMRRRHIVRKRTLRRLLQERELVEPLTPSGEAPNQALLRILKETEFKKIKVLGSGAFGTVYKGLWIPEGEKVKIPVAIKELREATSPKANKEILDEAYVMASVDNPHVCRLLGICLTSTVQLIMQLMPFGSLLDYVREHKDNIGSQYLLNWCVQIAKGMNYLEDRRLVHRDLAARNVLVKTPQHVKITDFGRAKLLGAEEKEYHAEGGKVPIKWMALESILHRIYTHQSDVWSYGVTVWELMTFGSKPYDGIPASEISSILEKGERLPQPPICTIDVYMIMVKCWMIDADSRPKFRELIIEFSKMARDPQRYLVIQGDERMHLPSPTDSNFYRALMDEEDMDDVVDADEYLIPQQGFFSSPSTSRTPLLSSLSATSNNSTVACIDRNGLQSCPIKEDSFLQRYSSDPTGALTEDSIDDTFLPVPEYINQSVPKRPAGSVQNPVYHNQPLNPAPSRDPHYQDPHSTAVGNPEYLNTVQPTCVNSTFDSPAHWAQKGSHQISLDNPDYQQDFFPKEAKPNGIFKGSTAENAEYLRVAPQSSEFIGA
Chain of EGFR del19/C797S (P00533 with tags, fused parts or gaps DEL746-750/C797S): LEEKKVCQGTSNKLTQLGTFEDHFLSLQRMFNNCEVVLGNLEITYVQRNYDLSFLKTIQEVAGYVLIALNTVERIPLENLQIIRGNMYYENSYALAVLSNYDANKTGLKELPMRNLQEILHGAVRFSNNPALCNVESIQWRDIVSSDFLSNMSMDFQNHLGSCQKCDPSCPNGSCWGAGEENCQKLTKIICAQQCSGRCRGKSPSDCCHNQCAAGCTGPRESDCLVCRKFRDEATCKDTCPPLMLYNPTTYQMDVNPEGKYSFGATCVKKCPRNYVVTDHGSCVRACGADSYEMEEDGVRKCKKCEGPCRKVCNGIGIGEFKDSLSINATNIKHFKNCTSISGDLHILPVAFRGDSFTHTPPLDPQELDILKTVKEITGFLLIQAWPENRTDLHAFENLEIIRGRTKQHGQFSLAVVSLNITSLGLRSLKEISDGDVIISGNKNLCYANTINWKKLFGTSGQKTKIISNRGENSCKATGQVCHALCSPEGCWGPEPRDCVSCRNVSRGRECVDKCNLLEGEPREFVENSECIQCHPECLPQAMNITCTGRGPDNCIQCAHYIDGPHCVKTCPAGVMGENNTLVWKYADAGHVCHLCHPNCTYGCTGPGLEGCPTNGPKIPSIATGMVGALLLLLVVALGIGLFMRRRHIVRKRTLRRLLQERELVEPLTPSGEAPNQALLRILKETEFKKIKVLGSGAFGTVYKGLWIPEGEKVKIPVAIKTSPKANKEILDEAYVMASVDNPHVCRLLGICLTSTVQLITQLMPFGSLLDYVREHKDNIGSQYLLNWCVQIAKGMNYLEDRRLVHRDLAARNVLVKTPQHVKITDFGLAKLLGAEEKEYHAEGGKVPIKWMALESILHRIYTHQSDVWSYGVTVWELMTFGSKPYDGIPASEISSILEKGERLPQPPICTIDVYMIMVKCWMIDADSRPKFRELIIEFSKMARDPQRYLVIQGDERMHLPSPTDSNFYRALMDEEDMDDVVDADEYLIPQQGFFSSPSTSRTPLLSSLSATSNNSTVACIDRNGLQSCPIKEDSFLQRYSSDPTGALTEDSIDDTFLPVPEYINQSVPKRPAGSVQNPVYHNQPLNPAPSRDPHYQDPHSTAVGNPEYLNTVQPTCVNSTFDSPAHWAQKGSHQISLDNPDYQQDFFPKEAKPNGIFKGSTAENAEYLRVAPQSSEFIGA

SMILES | IC50 (EGFR del19/T790M/C797S; [1]) [nM] | IC50 (EGFR del19/T790M/C797S; [2]) [nM] | IC50 (EGFR L858R/T790M/C797S; [3]) [nM] | IC50 (EGFR L858R/T790M/C797S; [4]) [nM] | IC50 (EGFR del19/C797S; [5]) [nM] | IC50 (EGFR del19/C797S; [6]) [nM] | IC50 (EGFR wildtype (WT); [7]) [nM] | IC50 (EGFR wildtype (WT); [8]) [nM] | IC50 (EGFR L858R/C797S; [9]) [nM] | IC50 (EGFR L858R/C797S; [10]) [nM] | IC50 (EGFR del19/T790M/C797S; Km ATP, read-out: IC50 del19/T790M/C797S, Km ATP) [nM] | IC50 (EGFR L858R/T790M/C797S; Km ATP, read-out: IC50 L858R/T790M/C797S, Km ATP) [nM] | IC50 (EGFR del19/C797S; Km ATP, read-out: IC50 del19/C797S, Km ATP) [nM] | IC50 (EGFR wildtype (WT); Km ATP, read-out: IC50 WT, Km ATP) [nM] | IC50 (EGFR L858R/C797S; Km ATP, read-out: IC50 L858R/C797S, Km ATP) [nM]
Cn1ccc(-c2cnc(Nc3ccnc(-c4cnn(S(=O)(=O)C5CC5)c4)n3)cc2NCC2(CO)COC2)n1 [Example 228, (3-(((2-((2-(1-(Cyclopropylsulfonyl)-1H-pyrazol-4-yl)pyrimidin-4-yl)amino)-5-(1-methyl-1H-pyrazol-3-yl)pyridin-4-yl)amino)methyl)oxetan-3-yl)methanol] | 0.2 | 0.1 | 0.2 | 0.1 | 0.8 | 0.6 | 2360 | 3.3 | 24.5 | 0.9 |  |  |  |  | 
C[C@]1(O)CC[C@@H](Nc2cc(Nc3ccnc(-c4cnn(S(=O)(=O)C5CC5)c4)n3)ncc2-c2ccn(C3CC3)n2)CC1 [Example 290, (1s,4s)-4-((5-(1-Cyclopropyl-1H-pyrazol-3-yl)-2-((2-(1-(cyclopropylsulfonyl)-1H-pyrazol-4-yl)pyrimidin-4-yl)amino)pyridin-4-yl)amino)-1-methylcyclohexan-1-ol] | 0.1 | 0.1 | 0.2 | 0.1 | 0.5 | 0.2 | 2500 | 2 | 3.4 | 0.3 |  |  |  |  | 
Cc1nn(CC(F)(F)F)cc1-c1nccc(Nc2cc(N[C@H]3CC[C@@](C)(O)CC3)c(-c3ccn(C(F)F)n3)cn2)n1 [Example 320, (1s,4s)-4-((5-(1-(Difluoromethyl)-1H-pyrazol-3-yl)-2-((2-(3-methyl-1-(2,2,2-trifluoroethyl)-1H-pyrazol-4-yl)pyrimidin-4-yl)amino)pyridin-4-yl)amino)-1-methylcyclohexan-1-ol] |  | 0.4 |  | 0.2 |  | 3.9 |  | 33.5 |  | 1.8 |  |  |  |  | 
O=S(=O)(C1CC1)n1cc(-c2nccc(Nc3cc(N[C@H]4CC[C@@H](F)CC4)c(-c4ccn(CCC(F)(F)F)n4)cn3)n2)cn1 [Example 306, N^2-(2-(1-(Cyclopropylsulfonyl)-1H-pyrazol-4-yl)pyrimidin-4-yl)-N^4-((1s,4s)-4-fluorocyclohexyl)-5-(1-(3,3,3-trifluoropropyl)-1H-pyrazol-3-yl)pyridine-2,4-diamine] |  | 9.1 |  | 5.9 |  | 171 |  | 1290 |  | 47.9 |  |  |  |  | 
Cc1ccn(-c2cnc(Nc3ccnc(-c4cnn(S(=O)(=O)C5CC5)c4)n3)cc2N[C@H]2CC[C@@](C)(O)CC2)n1 [Example 168, (1s,4s)-4-((2-((2-(1-(Cyclopropylsulfonyl)-1H-pyrazol-4-yl)pyrimidin-4-yl)amino)-5-(3-methyl-1H-pyrazol-1-yl)pyridin-4-yl)amino)-1-methylcyclohexan-1-ol] |  | 0.2 |  | 0.1 |  | 6.5 |  | 26.9 |  | 3 |  |  |  |  | 
O=S(=O)(C1CC1)n1cc(-c2nccc(Nc3cc(N[C@H]4CC[C@@H](F)CC4)c(-c4ccn(C(F)F)n4)cn3)n2)cn1 [Example 151, N^2-(2-(1-(Cyclopropylsulfonyl)-1H-pyrazol-4-yl)pyrimidin-4-yl)-5-(1-(difluoromethyl)-1H-pyrazol-3-yl)-N^4-((1s,4s)-4-fluorocyclohexyl)pyridine-2,4-diamine] |  | 1.6 |  | 0.9 |  | 43.5 |  | 72 |  | 4.7 |  |  |  |  | 
Cc1nn(CC(F)F)c(C)c1-c1nccc(Nc2cc(N[C@H]3CC[C@@](C)(O)CC3)c(-c3ccn(C(F)F)n3)cn2)n1 [Example 321, (1s,4s)-4-((2-((2-(1-(2,2-Difluoroethyl)-3,5-dimethyl-1H-pyrazol-4-yl)pyrimidin-4-yl)amino)-5-(1-(difluoromethyl)-1H-pyrazol-3-yl)pyridin-4-yl)amino)-1-methylcyclohexan-1-ol] |  | 2.8 |  | 2.3 |  | 20.2 |  | 74.8 |  | 10.4 |  |  |  |  | 
Cc1nn(CC(F)(F)F)cc1-c1cc(Nc2ncc(-c3ccn(C(F)F)n3)c(N[C@H]3CC[C@@](C)(O)CC3)n2)ccn1 [Example 368, (1s,4s)-4-((5-(1-(Difluoromethyl)-1H-pyrazol-3-yl)-2-((2-(3-methyl-1-(2,2,2-trifluoroethyl)-1H-pyrazol-4-yl)pyridin-4-yl)amino)pyrimidin-4-yl)amino)-1-methylcyclohexan-1-ol] |  |  |  |  |  |  |  |  |  |  | 1.9 | 0.9 | 12.6 | 33.6 | 10.7
